Data: patent US20230285570A1, “THERAPEUTICALLY USEFUL CURE-PRO MOLECULES FOR E3 LIGASE MEDIATED DEGRADATION OF PROTEINS, AND METHODS OF MAKING AND USING THEM” (CORNELL UNIVERSITY, priority 2020, published 2023)
“Also recorded” adds a separate entry of the source.

Tests used:
MV-4-11 cells = assay: CellTiter-Glo cell viability, MV-4-11 cells; type: cell-based; conditions: cotreated 1:1 with each of CRBN ligands 8046, 8047 and 8066, MV-4-11, 72 h, 10 nM-100 μM
Outline: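 Viability by CellTiter-Glo luminescence. One protocol: 5×10^4 MV-4-11 cells, 24 h, compounds at 1 nM-100 μM each; other: 1×10^4 cells, 72 h, 10 nM-100 μM each. BRD ligands combined 1:1 with CRBN ligands; dose-response curves fitted.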

BRD4 [1] = target: T1, BRD4 (Homo sapiens, UniProt O60885); assay: CURE-PRO-mediated BRD4 degradation in MCF7 cells, Western blot; type: cell-based; parameters: endogenous in cells; conditions: 1:1 with VHL ligand 8305, MCF7, 24 h, 100 nM-10 μM
Procedure: (§1) Namalwa, Ramosm HeLa, MCF7, or HT29 HCT116 cells (2.5-3×10^6) were treated for 24 hours with the indicated compounds solubilized in DMSO. The cells were washed in ice-cold PBS and were then lysed in RIPA lysis buffer (150 mM NaCl, 5 mM EDTA, 1% NP-40, 0.5% sodium deoxycholate, 0.1% SDS, 50 mM Tris, pH 8.0.) with Roche protease inhibitor complete cocktail and phosphatase inhibitors (10 mM sodium fluoride, 10 mM sodium pyrophosphate, 1 mM sodium orthovanadate and 20 mM β-glycerophosphate). The total protein concentrations were determined by Bradford Protein Assay (Pierce) and 10-20 μg of protein was loaded onto 4-15% Tris-Glycine gradient gels (Biorad). After standard gel electrophoresis, the separated proteins were transferred to PVDF membrane by wet transfer. The immunoblots were then blocked for 1 hour in 5% skim milk in TBST or 5% BSA in TBST, according to manufacturer's instructions, before an overnight incubation at 4° C. with indicated antibodies and membranes. Membranes were then incubated with the appropriate horseradish peroxidase-conjugated secondary antibodies (1:5,000 dilution) for 1 h at room temperature and the bands were visualized using the Clarity Max Western ECL Substrate (Biorad) and the ChemiDoc Imaging System (Biorad). Signal was detected with ECL Western Blotting Substrate (Pierce) and X-ray film processed with a Konica SRX-101 X-ray film processor or captured by Bio-Rad's Chemidoc Imaging system.
MCF7 cells (3×10^6) were treated for 24 h with the compounds solubilized in DMSO. Compounds were added at 100 nM-10 μM. Standardized protein samples were electrophoresed and imaged as described in the Immunoblotting section above. FIG. 69 depicts the CURE-PRO-mediated BRD4 degradation for the BRD-E9 monomer and VHL ligands 8305 combined in a 1:1 ratio, and FIG. 70 depicts the CURE-PRO-mediated BRD4 degradation for the BRD-E20 monomer and 8305.
MCF7 cells (3×10^6) were treated for 24 h with the compounds solubilized in DMSO. Compounds were added at 1 μM-10 μM. Standardized protein samples were electrophoresed and imaged as described in the Immunoblotting section above. FIG. 71 depicts the CURE-PRO-mediated BRD4 degradation for the BRD-E50 monomer and VHL ligands 8305 and 8304 combined in a 1:1 ratio.

BRD4 [2] = target: T1, BRD4; assay: BRD protein family degradation in HCT116 cells, Western blot: BRD4; type: cell-based; parameters: endogenous in cells
Procedure: as §1
HCT116 cells (3×10^6) were treated for 24 hours with the compounds solubilized in DMSO. Compounds were added at 100 nM-10 μM each. Standardized protein samples were electrophoresed and imaged as described in the Immunoblotting section above. FIGS. 64 and 65 depict the concentration-dependence of CURE-PRO-mediated BRD2 and BRD3 degradation using MDM2 ligands.

SLC19A1 = assay: RT-PCR of c-MYC downstream target gene SLC19A1 in HeLa cells; type: cell-based, Human; conditions: 10 μM each, 24 h
Procedure: The suppression of the expression of the downstream c-MYC target, SLC19A1, was measured by RT-PCR using Power SYBR® Green Cells-to-Ct™ Kit (Life Technologies). Adherent cells were plated on 96 well plates at 5,000 cells per well were treated for 24 h with monomer compounds and compounds capable of reversible interactions (1 nM-100 μM). Cells were subsequently washed in ice-cold PBS processed according to the manufacturer's instructions. Quantitative real-time PCR was performed using a ViiA™ 7 Real-time PCR System (Applied Biosystems, Foster City, Calif., USA). GAPDH and ACTB served as internal controls.
HeLa cells (1×10^4) were treated for 24 hours in 96 well plates with the compounds solubilized in DMSO. Compounds were added at 10 μM each and RNA expression measured by the Cells-to Ct method described above (Thermofisher).

SMILES	loss of cellular viability (toxicity) versus monomers alone (MV-4-11 cells)	BRD4 degradation (BRD4 [1])	BRD4 degradation (BRD4 [2]; 1:1 with MDM2 ligands 8310 and 8312 (each), HCT116, 24 h, 100 nM-10 μM)	selectivity of degradation among BRD2, BRD3 and BRD4 (BRD4 [2]; with MDM2 ligands 8310 and 8312, HCT116, Western blot)	suppression of SLC19A1 expression (SLC19A1; combined with MDM2 ligand 8310, HeLa)	suppression of SLC19A1 expression (SLC19A1; combined with MDM2 ligand 8312, HeLa)
CCNC(=O)C[C@@H]1N=C(c2ccc(Cl)cc2)c2cc(OCCCCC(=O)Nc3cccc(B(O)O)c3)ccc2-n2c(C)nnc21 [BRD-E20, (3-(5-(((4S)-6-(4-chlorophenyl)-4-(2-(ethylamino)-2-oxoethyl)-1-methyl-4H-benzo[f][1,2,4]triazolo[4,3-a][1,4]diazepin-8-yl)oxy)pentanamido)phenyl)boronic acid]	reduced viability; also recorded: increased toxicity	there is degradation of BRD4				
CCNC(=O)C[C@@H]1N=C(c2ccc(Cl)cc2)c2cc(OCCOCCNC(=O)c3cccc(O)c3O)ccc2-n2c(C)nnc21 [BRD-N39, N-(2-(2-(((4S)-6-(4-chlorophenyl)-4-(2-(ethylamino)-2-oxoethyl)-1-methyl-4H-benzo[f][1,2,4]triazolo[4,3-a][1,4]diazepin-8-yl)oxy)ethoxy)ethyl)-2,3-dihydroxybenzamide]			caused BRD4 degradation; also recorded: Degradation is evident	some selectivity for BRD4 over BRD2 and BRD3 is noted	suppression to levels comparable to that of JQ1 treatment	Complete suppression; also recorded: completely suppressed
